Structures are written as SMILES. pEC50: −log10 of the molar value. Where two headings read alike, the source gives them in different places.

Four molecules from US20230398099A1, “METHODS OF TREATING CONDITIONS RELATED TO THE S1P1 RECEPTOR” (Arena Pharmaceuticals, Inc., priority 2020, published 2023) can be followed below.

The target of one assay is T1, hS1PR4 (Homo sapiens, UniProt O95977).
T1 sequence (O95977 1-384): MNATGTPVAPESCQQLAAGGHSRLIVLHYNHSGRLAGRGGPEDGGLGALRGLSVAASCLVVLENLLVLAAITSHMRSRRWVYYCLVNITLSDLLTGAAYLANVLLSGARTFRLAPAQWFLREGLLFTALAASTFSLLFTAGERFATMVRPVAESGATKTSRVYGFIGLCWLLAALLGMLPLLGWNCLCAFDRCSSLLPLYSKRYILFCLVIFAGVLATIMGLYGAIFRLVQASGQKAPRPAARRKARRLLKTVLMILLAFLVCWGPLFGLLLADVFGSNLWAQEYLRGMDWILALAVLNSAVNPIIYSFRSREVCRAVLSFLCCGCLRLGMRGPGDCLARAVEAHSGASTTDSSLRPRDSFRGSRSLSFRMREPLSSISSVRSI
Kind of assay: b-arrestin recruitment assay. In kind it is cell-based. To be noted: for pEC50: EC50 [95% confidence interval] (n). A general note: Recruitment of arrestin is a read-out of receptor activation apart from second messengers.

The next assay deals with hS1PR5 (Homo sapiens, UniProt Q9H228). Kind of assay: b-arrestin recruitment assay. In kind it is cell-based. To be noted: for pEC50: EC50 [95% confidence interval] (n).
For a further assay, the target named is S1P2 Receptor (Homo sapiens, UniProt O95136). The assay can be described thus: S1P2 receptor internalization. The format is cell-based. To be noted: N 5.
The next assay concerns the target hS1PR2 (Homo sapiens, UniProt O95136). Kind of assay: b-arrestin recruitment assay. In kind it is cell-based.
The target in another assay is hS1PR3 (Homo sapiens, UniProt Q99500). The assay can be described thus: b-arrestin recruitment assay. The format is cell-based.
The target of the next assay is hS1P1 (Homo sapiens, UniProt P21453). Kind of assay: S1P1 GTPgS binding assay. In kind it is biochemical. To be noted: for pEC50: S1P1 GTPgS binding, EC50 [95% confidence interval] (n).
For another assay, the target named is hS1PR1 (Homo sapiens, UniProt P21453). The assay can be described thus: b-arrestin recruitment assay. In kind it is cell-based. To be noted: for pEC50: b-arrestin recruitment, hS1PR1, EC50 [95% confidence interval] (n).
Assay [1] relates to OVA-induced acute asthma model in mice. The assay can be described thus: ovalbumin (OVA)-induced acute asthma model. The format is in vivo, mouse. To be noted: QD Day 12-15; for immune cells in bronchoalveolar lavage (BAL): FIG. 9. The method, then:
The OVA model is a widely used pre-clinical allergic asthma model and recapitulates many of the hallmarks of allergic asthma in humans. These include elevated IgE and TH2 related cytokines, mucus hypersecretion, airway inflammation, goblet cell hyperplasia, epithelial hypertrophy, and airway hyperreactivity to stimuli.
Mice were sensitized with an intraperitoneal (IP) injection of OVA and adjuvant on days 0 and 7. Mice were then challenged with intranasal delivery of OVA (10-200 μg) in saline on days 13-15 with endpoints conducted on day 16. Endpoints in this model generally included total and differential cell counts as well as inflammatory mediator content in the broncho-alveolar lavage fluid, airway hyperreactivity and detailed lung mechanics measured with the flexiVent™ rodent mechanical ventilator as well as histopathology and immunohistochemistry on lung sections.

The subject of assay [2] is FITC-induced contact hypersensitivity (CHS)/dermatitis in BALB/c mice. Kind of assay: mouse model of FITC-induced contact dermatitis. To be noted: for skin thickening (ear thickening): FIG. 8. In kind it is in vivo. The source says: Fluorescein isothiocyanate isomer I (FITC) was used to induce contact hypersensitivity (CHS)/dermatitis in BALB/c mice by administering two sensitizing applications of the hapten onto the shaved flanks of the animals on Days 0 and 5, followed by three days of FITC challenge on the dorsal surface of both ears on Days 10-12. […] Treatment was initiated on Day −1 to model prophylactic treatment.

Where [3] appears, read: 1 mg/kg daily oral, compared to vehicle, dose-dependent, FIG. 6.
[4] abbreviates: 1 mg/kg daily oral, compared to vehicle, dose-dependent, FIG. 7.

S1P2 Receptor, sequence (O95136 whole entry): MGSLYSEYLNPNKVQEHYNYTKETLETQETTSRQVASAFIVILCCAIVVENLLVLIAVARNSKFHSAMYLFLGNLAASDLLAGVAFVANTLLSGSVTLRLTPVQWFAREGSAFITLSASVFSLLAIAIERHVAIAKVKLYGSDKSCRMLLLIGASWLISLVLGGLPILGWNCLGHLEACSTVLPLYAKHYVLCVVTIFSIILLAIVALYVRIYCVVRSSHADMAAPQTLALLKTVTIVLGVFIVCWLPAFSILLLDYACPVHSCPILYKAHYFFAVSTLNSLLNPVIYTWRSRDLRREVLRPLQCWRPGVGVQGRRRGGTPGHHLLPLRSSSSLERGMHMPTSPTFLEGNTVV
hS1PR1, sequence (P21453 whole entry): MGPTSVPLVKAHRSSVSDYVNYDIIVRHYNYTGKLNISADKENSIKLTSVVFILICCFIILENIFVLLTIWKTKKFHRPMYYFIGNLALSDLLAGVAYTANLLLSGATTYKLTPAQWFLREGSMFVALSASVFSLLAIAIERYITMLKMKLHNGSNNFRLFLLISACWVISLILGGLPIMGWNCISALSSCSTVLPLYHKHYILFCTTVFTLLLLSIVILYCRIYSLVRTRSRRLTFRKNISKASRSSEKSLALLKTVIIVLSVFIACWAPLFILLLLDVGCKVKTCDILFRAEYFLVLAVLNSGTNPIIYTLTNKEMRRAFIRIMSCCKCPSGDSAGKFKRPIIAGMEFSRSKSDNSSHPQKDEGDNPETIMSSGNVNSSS
hS1P1, sequence (P21453 whole entry): as above
hS1PR5, sequence (Q9H228 whole entry): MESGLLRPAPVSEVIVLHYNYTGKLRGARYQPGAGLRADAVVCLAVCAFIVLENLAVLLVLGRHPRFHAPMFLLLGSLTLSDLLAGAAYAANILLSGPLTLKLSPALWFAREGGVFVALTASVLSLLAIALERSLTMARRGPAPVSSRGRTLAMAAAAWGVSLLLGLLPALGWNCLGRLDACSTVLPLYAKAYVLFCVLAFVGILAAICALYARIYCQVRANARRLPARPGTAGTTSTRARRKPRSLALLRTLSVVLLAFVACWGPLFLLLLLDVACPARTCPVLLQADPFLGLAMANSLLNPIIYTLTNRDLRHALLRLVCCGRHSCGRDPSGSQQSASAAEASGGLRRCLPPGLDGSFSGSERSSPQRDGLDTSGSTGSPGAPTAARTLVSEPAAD
hS1PR3, sequence (Q99500 whole entry): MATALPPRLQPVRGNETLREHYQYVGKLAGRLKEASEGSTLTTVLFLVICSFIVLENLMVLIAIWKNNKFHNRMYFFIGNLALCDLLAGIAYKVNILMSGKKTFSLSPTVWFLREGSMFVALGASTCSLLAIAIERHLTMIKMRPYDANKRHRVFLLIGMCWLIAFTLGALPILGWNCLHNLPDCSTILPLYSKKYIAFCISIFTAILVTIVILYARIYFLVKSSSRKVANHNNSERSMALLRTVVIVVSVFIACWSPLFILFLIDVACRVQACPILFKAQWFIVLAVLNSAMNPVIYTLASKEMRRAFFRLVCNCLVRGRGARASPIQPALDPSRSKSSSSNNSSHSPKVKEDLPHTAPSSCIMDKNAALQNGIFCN
hS1PR2, sequence (O95136 whole entry): as the sequence (O95136 whole entry) above

On to `CCCCCCCCCCCCC/C=C/[C@@H](O)[C@@H](N)COP(=O)(O)O` [Compound S1P, sphingosine-1-phosphate], for which the negative-log EC50 (pEC50) (as a rule, −log10 of the EC50, conventionally taken in molar units) on hS1PR4 (b-arrestin recruitment, hS1PR4) is 9.00; at hS1PR3 (b-arrestin recruitment, hS1PR3, EC50 [95% confidence interval] (n)), 7.86; at hS1P1, 7.11; at hS1PR1, 7.74. The maximum response (Emax) – broadly, the size of the effect at its maximum, as opposed to the concentration needed – at hS1PR4 (read-out: Emax) came out at 117%; at hS1PR5 (read-out: Emax), 114%; at hS1PR2, 108%; on hS1PR3, 113%; at hS1P1 it was 102%; on hS1PR1, 113%. In addition, the “Efficacy, % of S1P” value at S1P2 Receptor is given as 100%.
Regarding `CCCCCCCCc1ccc(CC[C@](N)(CO)COP(=O)(O)O)cc1` [Fingolimod(P)], the maximal effect (Emax) at hS1PR4 (b-arrestin recruitment, hS1PR4, % relative to S1P) stood at 94%; at hS1PR5 (b-arrestin recruitment, hS1PR5, % relative to S1P), 62%. In addition, on hS1PR4 (b-arrestin recruitment, hS1PR4), the negative-log EC50 (pEC50) is 9.12. Moreover, on S1P2 Receptor, the “Efficacy, % of S1P” value was 80%.
As for `CC(C)Cc1ccc(-c2nc(-c3ccc(CN4CC(C(=O)O)C4)c(F)c3)no2)cc1` [Compound 1, 1-{2-fluoro-4-[5-(4-isobutylphenyl)-1,2,4-oxadiazole-3-yl]benzyl}-3-azetidinecarboxylic acid], the pEC50 on hS1PR4 (b-arrestin recruitment, hS1PR4) was 8.49; on hS1PR5 (b-arrestin recruitment, hS1PR5) it was 9.15; at S1P2 Receptor it was 5.60; at hS1P1 it was 8.74; on hS1PR1 it was 8.21. Moreover, the Emax on hS1PR4 (read-out: Emax) amounted to 104%; on hS1PR5 (read-out: Emax), 120%; on hS1P1 it was 98%; at hS1PR1, 128%. In addition, the “Efficacy, % of S1P” value on S1P2 Receptor was 65%. Further, the “immune cells in bronchoalveolar lavage (BAL)” value in assay [1] (0.1 mg/kg PO) and in [1] (1 mg/kg PO) was “did not have significant effect” in each case. The “lung function measured by airway resistance or elastance” value in assay [1] (PO, Methacholine challenge, FIG. 10) is “no significant effect”. The “skin thickening (ear thickening)” value in assay [2] (0.1 mg/kg daily oral) is “had no effect”; in [2] (1 mg/kg daily oral), “reduced skin thickening”. In addition, the “B cells in the skin” value in [2] (setting [3]) was “reduced”. Moreover, in assay [2] (setting [3]), the “T cells in the skin” value is “reduced”. Besides, the WBC count result in assay [2] (setting [4]) is recorded as “reduced”. Also, in assay [2] (setting [4]), the lymphocyte frequency result is reported as “reduced”.
As to `CC(C)Oc1ccc(-c2nc(-c3cccc4c3CC[C@@H]4NCCO)no2)cc1C#N` [Ozanimod], the negative logarithm of the EC50 (pEC50) on hS1PR4 (b-arrestin recruitment, hS1PR4) was 6.93; at hS1PR5 (b-arrestin recruitment, hS1PR5), 8.14. Moreover, the Emax stood at 93% on hS1PR4 (read-out: Emax), 117% at hS1PR5 (read-out: Emax), 104% at hS1P1 and 130% at hS1PR1.
